The values that follow are results of earlier work, collected in US7087219B2, “Toothpaste containing anticancer agents” (priority 2003, dated 2006).

For data set [1] the following is noted: according to publications and patents (Burzynski et al. 1986).
The conditions of data set [2]: general statement; marketed as a food supplement.

For the compound `O=C1CCC(NC(=O)Cc2ccccc2)C(=O)N1` (centres unmarked) [3-N-phenylacetylamino-2,6-piperidinedione], in data set [1], the “efficacy in treating cancers in clinical trials” value was “effective in treating a variety of cancers in clinical trials”. In addition, the toxicity entry in data set [2] is “completely non-toxic”.
